Data: ChEMBL document CHEMBL1139034, “Synthesis and antihyperglycemic evaluation of various protoberberine derivatives” (2006)
Active and inactive are the calls of the source. The rule behind the calls is not given here.

Legend:
[1] = Reduction of blood glucose level in alloxan induced diabetic mice at 200 mg/kg; format: functional, organism-based; set-up: dose 200 mg/kg; conditions: Mus musculus, target entry is the homologue from another species
Escherichia coli [2] = assay: Antibacterial activity against Escherichia coli upto 50 ug/mL; format: functional, organism-based
[3] = biological target: Sulfonylurea receptor 1, Kir6.2 (Homo sapiens) (UniProt Q14654+Q09428); assay: Binding affinity to sulfonylurea receptor in pancreatic islet beta cell membranes
Escherichia coli [4] = assay: Antibacterial activity against Escherichia coli; format: functional

SMILES: c1ccc2c[n+]3c(cc2c1)-c1cc2c(cc1CC3)OCO2
- Activity [1]: 67 mg/dL
- Activity (Escherichia coli [2]): inactive
- Activity [3]: Active

SMILES: COc1ccc2c(c1OC)C[N+]1(C)CCc3cc4c(cc3C1C2)OCO4 (stereo unspecified)
- Activity (Escherichia coli [2]): inactive
- Activity [3]: inactive

SMILES: COc1ccc2c(c1OC)C[N+]1(Cc3ccccc3)CCc3cc4c(cc3C1C2)OCO4 (stereo unspecified)
- Activity [1]: 146 mg/dL
- Activity (Escherichia coli [2]): inactive
- Activity [3]: Active

SMILES: COc1ccc2cc3[n+](cc2c1O)CCc1cc2c(cc1-3)OCO2
- Activity [1]: 12 mg/dL
- Activity (Escherichia coli [2]): inactive
- Activity [3]: Active

SMILES: COc1ccc2cc3[n+](cc2c1OC)CCc1cc(OC(C)=O)c(OC(C)=O)cc1-3
- Activity (Escherichia coli [2]): inactive
- Activity [3]: inactive

SMILES: COc1cc2c(cc1OC)-c1cc3ccc(OC)c(OC)c3c[n+]1CC2
- Activity (Escherichia coli [2]): inactive
- Activity [3]: inactive

SMILES: c1ccc2c(c1)CC1c3cc4c(cc3CCN1C2)OCO4 (stereo unspecified)
- Activity (Escherichia coli [2]): inactive
- Activity [3]: inactive

SMILES: COc1ccc2c(c1)C(=O)N(CCc1ccc(S(=O)(=O)NC(=O)NC3CCCCC3)cc1)C(=O)C2(C)C
- Activity [1]: 162 mg/dL
- Activity [3]: Active

SMILES: COc1ccc2c(c1OC)CN1CCc3cc4c(cc3[C@@H]1C2)OCO4
- Activity (Escherichia coli [2]): inactive
- Activity [3]: inactive

SMILES: c1ccc(C[N+]23CCc4cc5c(cc4C2Cc2ccccc2C3)OCO5)cc1 (stereo unspecified)
- Activity (Escherichia coli [2]): inactive
- Activity [3]: Active

SMILES: COc1ccc2c[n+]3c(cc2c1)-c1cc2c(cc1CC3)OCO2
- Activity (Escherichia coli [2]): inactive
- Activity [3]: inactive

SMILES: COc1ccc2cc3[n+](cc2c1)CCc1cc2c(cc1-3)OCO2
- Activity (Escherichia coli [2]): inactive
- Activity [3]: inactive

SMILES: CC[N+]12CCc3cc4c(cc3C1Cc1ccc(OC)c(OC)c1C2)OCO4 (stereo unspecified)
- Activity (Escherichia coli [2]): inactive
- Activity [3]: inactive

SMILES: COc1ccc2cc3[n+](cc2c1OC)CCc1cc2c(cc1-3)OCO2.[Cl-] [BERBERINE CHLORIDE]
- Activity [1]: 61 mg/dL
- MIC (Escherichia coli [4]): 5 mg/L
- Activity [3]: Active

SMILES: COc1cccc2cc3[n+](cc12)CCc1cc2c(cc1-3)OCO2
- Activity (Escherichia coli [2]): inactive
- Activity [3]: inactive

SMILES: COc1ccc2cc3[n+](cc2c1OC)CCc1cc(O)c(O)cc1-3
- Activity (Escherichia coli [2]): inactive
- Activity [3]: inactive

SMILES: c1ccc(COc2ccc3c[n+]4c(cc3c2)-c2cc3c(cc2CC4)OCO3)cc1
- Activity (Escherichia coli [2]): inactive
- Activity [3]: inactive

SMILES: COc1ccc2c(c1OC)C[N+]1([O-])CCc3cc4c(cc3C1C2)OCO4 (stereo unspecified)
- Activity [1]: 23 mg/dL
- Activity (Escherichia coli [2]): inactive
- Activity [3]: Active
